Series [1] deals with T1, human TPOR (Homo sapiens, UniProt P40238).
T1 construct: expressed in transfected cells; host or cells: mouse BAF3 cells
T1 sequence (P40238 26-635): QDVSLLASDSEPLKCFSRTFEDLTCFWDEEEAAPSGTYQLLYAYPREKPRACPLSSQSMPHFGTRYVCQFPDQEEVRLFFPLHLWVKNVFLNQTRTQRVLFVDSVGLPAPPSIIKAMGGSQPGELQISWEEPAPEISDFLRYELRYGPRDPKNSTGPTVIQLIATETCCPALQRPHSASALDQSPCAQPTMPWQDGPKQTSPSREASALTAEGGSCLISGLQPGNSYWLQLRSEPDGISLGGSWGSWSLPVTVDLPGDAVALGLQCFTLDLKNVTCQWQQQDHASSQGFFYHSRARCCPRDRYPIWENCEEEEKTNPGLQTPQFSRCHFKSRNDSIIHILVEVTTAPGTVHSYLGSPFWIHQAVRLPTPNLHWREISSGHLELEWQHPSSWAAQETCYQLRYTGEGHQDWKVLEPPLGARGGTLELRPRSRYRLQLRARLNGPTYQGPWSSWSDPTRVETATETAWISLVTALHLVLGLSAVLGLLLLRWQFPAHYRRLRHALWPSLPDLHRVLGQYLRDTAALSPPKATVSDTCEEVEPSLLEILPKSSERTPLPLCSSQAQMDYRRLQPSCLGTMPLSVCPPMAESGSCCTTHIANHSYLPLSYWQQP
Description: Proliferation of BAF3/TPOR cells (MTS method, OD490). It counts as cell-based, mouse. To be noted: BAF3 cells stably expressing human TPOR, cultured with compound 24 h. An excerpt: The TPO mimetic compound was synthesized in vitro, and the compound acted on the TPO receptor (TPOR) on the cell to stimulate cell proliferation and differentiation. The OD490 value was detected by the MTS method, and the more the number of cells, the larger the OD value, thereby detecting the response of the compound to cell proliferation and differentiation. The agonist concentration at which the increased signal arrived at the highest level was Emax, and the concentration of the compound at which the increased signal arrived at 50% of the signal of Emax was EC50. The activity of the compound was determinable by EC50, and the smaller the EC50, the higher the activity of the compound.
Mouse […] BAF3 stably expressing human TPOR were cultured in 1640 medium containing 10% FBS. On the day of the assay, the cells were counted and seeded in a 96-well plate at 1×10^4 cells/50 μL. 50 μL of different concentrations of the tested compound were added to the wells to a final concentration of 10000 nM, 3000 nM, 300 nM, 30 nM, 3 nM, 0.3 nM, 0.03 nM, 0.003 nM, 0.0003 nM, and the final concentration of DMSO was 1%. After the cells were cultured with the compound for 24 h at 37° C. in a 5% CO2 incubator, 10 μL of detection reagent (Promega, Cell Titer 96® Aqueous One Solution) was added. After mixing, the resulting mixture was incubated for 3 h in the incubator. The OD 490 was detected using a multifunctional automatic microplate reader, and the EC50 was fitted using GraphPad Prism 5 software.

For series [2], the target named is hERG potassium channel (Homo sapiens, UniProt Q12809). Description: hERG test, electrophysiological manual patch clamp. It counts as cell-based. The source says:
In cardiomyocytes, the potassium channel encoded by hERG (human Ether-a-go-go Related Gene) mediated the delayed rectifier potassium current (lKr). The IKr inhibition was the most important mechanism for drug-induced QT prolongation and induction of arrhythmia.
The electrophysiological manual patch clamp was used to detect the effect of the tested compound on the hERG potassium channel.

The values that follow come from patent publication US20190315771A1, “NOVEL 2-ACYLAMINOTHIAZOLE DERIVATIVE AND PREPARATION METHOD THEREFOR AND USE THEREOF” (SICHUAN KELUN-BIOTECH BIOPHARMACEUTICAL CO., LTD., priority 2016, published 2019).

hERG potassium channel, sequence (Q12809 whole entry): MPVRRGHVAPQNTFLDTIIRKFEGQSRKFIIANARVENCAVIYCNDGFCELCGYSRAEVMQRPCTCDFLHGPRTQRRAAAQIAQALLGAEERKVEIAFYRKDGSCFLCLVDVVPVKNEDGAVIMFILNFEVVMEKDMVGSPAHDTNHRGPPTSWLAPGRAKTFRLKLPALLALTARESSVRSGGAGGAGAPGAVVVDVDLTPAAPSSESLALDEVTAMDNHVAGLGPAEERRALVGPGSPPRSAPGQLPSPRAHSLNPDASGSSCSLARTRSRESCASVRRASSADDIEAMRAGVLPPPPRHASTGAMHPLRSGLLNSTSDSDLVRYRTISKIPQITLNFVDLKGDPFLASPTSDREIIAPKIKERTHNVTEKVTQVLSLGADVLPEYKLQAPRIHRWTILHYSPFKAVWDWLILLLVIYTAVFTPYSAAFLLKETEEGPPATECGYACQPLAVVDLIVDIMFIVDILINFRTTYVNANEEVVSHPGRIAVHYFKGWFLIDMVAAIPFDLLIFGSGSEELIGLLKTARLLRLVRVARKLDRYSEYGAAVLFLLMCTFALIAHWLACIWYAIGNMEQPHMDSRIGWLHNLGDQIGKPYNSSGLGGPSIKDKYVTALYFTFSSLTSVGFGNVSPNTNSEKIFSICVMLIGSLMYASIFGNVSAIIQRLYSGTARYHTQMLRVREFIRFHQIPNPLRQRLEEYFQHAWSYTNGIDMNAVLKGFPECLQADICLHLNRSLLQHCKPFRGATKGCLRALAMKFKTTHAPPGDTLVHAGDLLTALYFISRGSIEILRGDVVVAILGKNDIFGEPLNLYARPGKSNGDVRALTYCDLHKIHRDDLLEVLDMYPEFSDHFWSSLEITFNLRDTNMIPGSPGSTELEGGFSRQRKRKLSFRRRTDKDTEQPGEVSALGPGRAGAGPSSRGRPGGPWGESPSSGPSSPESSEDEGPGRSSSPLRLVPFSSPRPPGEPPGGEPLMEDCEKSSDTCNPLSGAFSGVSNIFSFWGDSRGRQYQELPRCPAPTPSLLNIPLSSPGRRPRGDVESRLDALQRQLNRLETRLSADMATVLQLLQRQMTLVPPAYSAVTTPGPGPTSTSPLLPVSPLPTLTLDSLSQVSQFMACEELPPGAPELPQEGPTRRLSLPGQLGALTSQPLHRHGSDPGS

For `CCCCCCO[C@@H](C)c1cccc(-c2csc(NC(=O)c3cc(Cl)c(/C=C(\C)C(=O)O)c(Cl)c3)n2)c1OC` [Lusutrombopag, reference compound], in series [1], the EC50 was 1.93 nM. For the same compound, the “hERG potassium channel inhibition (judgement in words)” value in series [2] (conclusion from Table 2) is “significant cardiac hERG potassium channel inhibition”. Moreover, the midpoint of inhibition in series [2] (manual patch clamp, IC50 >10 μM judged as no inhibitory effect on hERG), the IC50, lay at 2370 nM.
